Legend:
STAT1 = molecular target: T1, STAT1 (Homo sapiens, UniProt P42224); assay: Fluorescence polarization (FP) binding assay, STAT1
T1 sequence (P42224 1-750): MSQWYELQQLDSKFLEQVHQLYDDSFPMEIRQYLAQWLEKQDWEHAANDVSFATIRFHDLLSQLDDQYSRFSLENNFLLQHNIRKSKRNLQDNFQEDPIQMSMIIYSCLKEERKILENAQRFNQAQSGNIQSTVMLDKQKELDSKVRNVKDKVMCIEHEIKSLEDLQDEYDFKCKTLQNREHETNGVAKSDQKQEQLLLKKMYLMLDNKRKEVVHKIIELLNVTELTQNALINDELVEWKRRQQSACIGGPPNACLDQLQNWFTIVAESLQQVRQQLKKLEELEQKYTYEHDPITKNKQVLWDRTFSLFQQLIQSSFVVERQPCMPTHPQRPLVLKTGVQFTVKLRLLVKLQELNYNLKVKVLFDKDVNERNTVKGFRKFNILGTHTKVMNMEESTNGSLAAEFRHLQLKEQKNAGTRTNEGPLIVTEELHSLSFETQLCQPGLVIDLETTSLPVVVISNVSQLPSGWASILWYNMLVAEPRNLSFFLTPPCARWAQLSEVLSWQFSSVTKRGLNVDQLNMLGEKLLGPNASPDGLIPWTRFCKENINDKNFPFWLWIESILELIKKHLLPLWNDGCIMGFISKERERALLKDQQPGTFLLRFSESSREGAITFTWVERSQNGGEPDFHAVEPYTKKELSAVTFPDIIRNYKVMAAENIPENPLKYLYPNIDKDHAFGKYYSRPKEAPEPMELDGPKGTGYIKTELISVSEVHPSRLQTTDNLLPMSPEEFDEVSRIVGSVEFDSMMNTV
Experimental: (§1) Ki values were calculated from IC50 values using the published equation.[2] […]
(§2) Table S2: Activities of 12 against STAT5 proteins in FP assays.
(§3) Fluorescence polarization assays
(§4) Fluorescence polarization assays were essentially carried out as previously described.[1] These assays quantitate to which extent a test compound is able to interfere with binding between a STAT protein and a fluorescein-labeled phosphotyrosine-containing peptide, which is known to bind to the SH2 domain of the respective STAT protein. The following protein […]
concentrations were used: 100 nM for STAT1, 150 nM for STAT3, 30 nM for STAT4, 180 nM for STAT5a, 90 nM for STAT5b and 105 nM for STAT6. All peptides were used at a concentration of 10 nM. The following peptides were used: 5 -carboxyfluorescein -GpYDKPHVL for STAT1; 5-carboxyfluorescein -GpYLPQTV-NH2 for STAT3; 5-carboxyfluorescein-GpYLPQNID-OH for STAT4; 5-carboxyfluorescein-GpYLVLDKW for STAT5a/b, and 5-carboxyfluorescein-GpYVPWQDLI-OH for STAT6. As a buffer system, 10 mM Tris (pH 8.0), 50 mM NaCl, 1 mM EDTA, 1 mM DTT, 0.1 % Nonidet P-40 substitute, and 2 % DMSO in water was used. All compounds tested were incubated for 1 h with the protein. Subsequently, the fluorescein-labeled peptide was added and the fluorescence polarization was measured with an Infinite F500 plate reader (Tecan) after another hour. IC50 values were converted to Ki-values using the published equation.[2] […]
3:2 solution was added . The solution was degassed by applying ultrasonic under vacuum for one minute four times. 14 mg of Pd(PPh3)4 (12 µmol, 5 mol %) were added and the solution was refluxed overnight. After cooling down, the mixture was extracted with ethyl acetate, washed with brine and dried over Na2SO4. The crude product was purified by flash column […]
Method 2: Synthesis of dibenzylphosphate esters
The corresponding phenol (1 eq.) was dissolved in 10 ml/mmol MeCN or DMF and CCl4 (5 eq.), DIPEA (2 eq.) and DMAP (0.1 eq.) were added. After cooling down to 0°C, dibenzyl phosphite (1.5 eq.) was added dropwise and stirring was continued at the same temperature. […]

STAT3 = STAT3 (Homo sapiens, UniProt P40763); assay: Fluorescence polarization (FP) binding assay, STAT3
Experimental: Table S1: Activities of test compounds against STAT5a and STAT5b in FP assays . Experiments were carried out in triplicate (n = 3) unless stated otherwise. n/a: not applicable.
[a]data taken from the literature.[1]
as §1, §2, §3, §4
concentrations were used: 100 nM for STAT1, 150 nM for STAT3, 30 nM for STAT4, 180 nM for STAT5a, 90 nM for STAT5b and 105 nM for STAT6. All peptides were used at a concentration of 10 nM. The following peptides were used: 5 -carboxyfluorescein -GpYDKPHVL for STAT1; 5-carboxyfluorescein -GpYLPQTV-NH2 for STAT3; 5-carboxyfluorescein-GpYLPQNID-OH for STAT4; 5-carboxyfluorescein-GpYLVLDKW for STAT5a/b, and 5-carboxyfluorescein-GpYVPWQDLI-OH for STAT6. As a buffer system, 10 mM Tris (pH 8.0), 50 mM NaCl, 1 mM EDTA, 1 mM DTT, 0.1 % Nonidet P-40 substitute, and 2 % DMSO in water was used. All compounds tested were incubated for 1 h with the protein. Subsequently, the fluorescein-labeled peptide was added and the fluorescence polarization was measured with an Infinite F500 plate reader (Tecan) after another hour. IC50 values were converted to Ki-values using the published equation.[2]

[1] = FP assay, Ki calculated from IC50 (n=3)

STAT3, sequence (P40763 whole entry, species assumed): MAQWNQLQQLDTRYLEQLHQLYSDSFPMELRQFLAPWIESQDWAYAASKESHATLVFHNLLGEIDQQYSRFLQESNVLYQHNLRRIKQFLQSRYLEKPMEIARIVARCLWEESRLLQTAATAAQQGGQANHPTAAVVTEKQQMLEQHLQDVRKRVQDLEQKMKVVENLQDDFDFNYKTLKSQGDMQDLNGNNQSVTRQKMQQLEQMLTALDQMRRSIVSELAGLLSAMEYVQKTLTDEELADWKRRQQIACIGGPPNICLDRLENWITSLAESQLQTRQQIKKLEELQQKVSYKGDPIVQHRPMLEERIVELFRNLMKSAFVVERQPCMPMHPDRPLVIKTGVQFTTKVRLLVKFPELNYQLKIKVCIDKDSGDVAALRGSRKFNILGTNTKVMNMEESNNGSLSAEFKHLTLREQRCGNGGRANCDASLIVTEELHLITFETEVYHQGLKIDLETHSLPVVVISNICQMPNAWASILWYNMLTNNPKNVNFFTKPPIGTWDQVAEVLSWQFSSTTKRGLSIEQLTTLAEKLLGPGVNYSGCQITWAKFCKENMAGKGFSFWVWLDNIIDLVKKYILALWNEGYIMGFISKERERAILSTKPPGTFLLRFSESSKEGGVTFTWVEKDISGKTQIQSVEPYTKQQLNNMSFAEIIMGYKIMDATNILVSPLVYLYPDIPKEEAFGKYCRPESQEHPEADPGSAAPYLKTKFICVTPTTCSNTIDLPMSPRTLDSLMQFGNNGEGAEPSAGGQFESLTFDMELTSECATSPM

| Compound | IC50 (STAT1; FP assay) | Ki (STAT1; [1]) | IC50 (STAT3; FP assay) | Ki (STAT3; [1]) | inhibition at 200 µM (STAT1; read-out: STAT1 inhibition at 200 μM) | inhibition at 200 µM (STAT3; read-out: STAT3 inhibition at 200 μM) |
| --- | --- | --- | --- | --- | --- | --- |
| COc1cc(-c2cc(-c3cc(F)c(F)c(F)c3)cc(C(F)P(=O)(O)O)c2)cc(OC)c1OC (stereo not drawn) [compound 12] | 90.6 ± 0.2 µM | 44.6 ± 0.1 µM | 145 ± 6.8 µM | 71.7 ± 3.4 µM | – | – |
| COc1cc(-c2cc(OP(=O)(O)O)cc(-c3cc(F)c(F)c(F)c3)c2)cc(OC)c1OC [6 b] | – | – | – | – | 51 ± 5% | 25 ± 3% |
